From paper PMC6013247, “Preclinical characterization of INCB053914, a novel pan-PIM kinase inhibitor, alone and in combination with anticancer agents, in models of hematologic malignancies” (PLoS ONE, 2018)

Tests used:
AXL = AXL (Homo sapiens, UniProt P30530); test: Kinase selectivity panel; type: biochemical; details: [ATP] = 1 mM
BTK = BTK (Homo sapiens, UniProt Q06187); test: Kinase selectivity panel; type: biochemical; details: [ATP] = 1 mM
CHEK2 = CHEK2 (Homo sapiens, UniProt O96017); test: Kinase selectivity panel; type: biochemical; details: [ATP] = 1 mM
DDR2 = DDR2 (Homo sapiens, UniProt Q16832); test: Kinase selectivity panel; type: biochemical; details: [ATP] = 1 mM
EGFR = EGFR (Homo sapiens, UniProt P00533); test: Kinase selectivity panel; type: biochemical; details: [ATP] = 1 mM
FAK = FAK (Homo sapiens, UniProt Q05397); test: Kinase selectivity panel; type: biochemical; details: [ATP] = 1 mM
HIPK3 = HIPK3 (Homo sapiens, UniProt Q9H422); test: Kinase selectivity panel; type: biochemical; details: [ATP] = 1 mM
IKKB = IKKB (Homo sapiens, UniProt O14920); test: Kinase selectivity panel; type: biochemical; details: [ATP] = 1 mM
JNK1 = JNK1 (Homo sapiens, UniProt P45983); test: Kinase selectivity panel; type: biochemical; details: [ATP] = 1 mM
Sequence of JNK1 (P45983 whole entry): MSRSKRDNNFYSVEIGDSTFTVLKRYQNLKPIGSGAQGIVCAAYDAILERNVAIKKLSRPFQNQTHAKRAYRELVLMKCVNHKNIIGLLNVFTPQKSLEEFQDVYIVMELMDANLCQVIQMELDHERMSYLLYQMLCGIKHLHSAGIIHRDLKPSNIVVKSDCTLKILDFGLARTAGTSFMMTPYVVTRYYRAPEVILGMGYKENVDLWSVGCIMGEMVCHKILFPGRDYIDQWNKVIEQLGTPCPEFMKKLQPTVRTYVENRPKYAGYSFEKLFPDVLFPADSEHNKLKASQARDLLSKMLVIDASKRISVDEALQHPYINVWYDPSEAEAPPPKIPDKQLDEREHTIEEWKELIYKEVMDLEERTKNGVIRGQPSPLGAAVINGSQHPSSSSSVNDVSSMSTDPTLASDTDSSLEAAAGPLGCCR

KDR = KDR (Homo sapiens, UniProt P35968); test: Kinase selectivity panel; type: biochemical; details: [ATP] = 1 mM
Sequence of KDR (P35968 20-1356): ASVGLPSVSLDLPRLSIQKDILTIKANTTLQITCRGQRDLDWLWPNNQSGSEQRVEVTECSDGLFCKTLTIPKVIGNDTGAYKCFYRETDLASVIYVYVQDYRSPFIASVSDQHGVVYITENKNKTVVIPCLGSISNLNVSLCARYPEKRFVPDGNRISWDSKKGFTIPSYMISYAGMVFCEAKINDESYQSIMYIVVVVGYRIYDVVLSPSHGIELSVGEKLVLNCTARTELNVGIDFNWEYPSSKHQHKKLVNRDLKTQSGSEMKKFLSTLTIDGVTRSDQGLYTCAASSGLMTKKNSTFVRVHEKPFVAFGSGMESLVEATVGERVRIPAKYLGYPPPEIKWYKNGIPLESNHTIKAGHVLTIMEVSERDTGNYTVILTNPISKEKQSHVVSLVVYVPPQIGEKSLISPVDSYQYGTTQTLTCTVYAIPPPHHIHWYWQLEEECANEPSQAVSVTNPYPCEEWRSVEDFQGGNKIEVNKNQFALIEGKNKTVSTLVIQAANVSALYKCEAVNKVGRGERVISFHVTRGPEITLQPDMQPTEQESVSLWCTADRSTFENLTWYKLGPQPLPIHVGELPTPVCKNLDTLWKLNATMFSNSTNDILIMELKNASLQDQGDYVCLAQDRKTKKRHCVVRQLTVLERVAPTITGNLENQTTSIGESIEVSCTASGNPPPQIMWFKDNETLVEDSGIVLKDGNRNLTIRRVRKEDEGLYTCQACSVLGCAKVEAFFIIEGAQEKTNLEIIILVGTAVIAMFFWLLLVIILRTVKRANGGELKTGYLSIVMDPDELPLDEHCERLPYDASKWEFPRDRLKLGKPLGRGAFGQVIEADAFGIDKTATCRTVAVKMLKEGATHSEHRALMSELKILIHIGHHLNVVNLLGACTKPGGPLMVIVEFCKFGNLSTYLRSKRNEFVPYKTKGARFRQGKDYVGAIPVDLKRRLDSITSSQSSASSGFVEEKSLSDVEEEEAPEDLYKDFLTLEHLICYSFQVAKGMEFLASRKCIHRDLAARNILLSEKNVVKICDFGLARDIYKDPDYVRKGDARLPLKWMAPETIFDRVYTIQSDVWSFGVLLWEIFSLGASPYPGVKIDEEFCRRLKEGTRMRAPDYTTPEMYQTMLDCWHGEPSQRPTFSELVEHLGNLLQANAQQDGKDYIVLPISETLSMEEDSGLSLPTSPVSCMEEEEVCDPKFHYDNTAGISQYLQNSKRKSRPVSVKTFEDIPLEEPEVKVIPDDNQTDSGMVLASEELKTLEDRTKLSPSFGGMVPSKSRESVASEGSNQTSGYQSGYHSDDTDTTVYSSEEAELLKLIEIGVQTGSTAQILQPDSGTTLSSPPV

LRRK2 = LRRK2 (Homo sapiens, UniProt Q5S007); test: Kinase selectivity panel; type: biochemical; details: [ATP] = 1 mM
PHKG2 = PHKG2 (Homo sapiens, UniProt P15735); test: Kinase selectivity panel; type: biochemical; details: [ATP] = 1 mM
PKCD = PKCD (Homo sapiens, UniProt Q05655); test: Kinase selectivity panel; type: biochemical; details: [ATP] = 1 mM
PLK3 = PLK3 (Homo sapiens, UniProt Q9H4B4); test: Kinase selectivity panel; type: biochemical; details: [ATP] = 1 mM
PRKAA1 = PRKAA1 (Homo sapiens, UniProt Q13131); test: Kinase selectivity panel; type: biochemical; details: [ATP] = 1 mM
RET = RET (Homo sapiens, UniProt P07949); test: Kinase selectivity panel; type: biochemical; details: [ATP] = 1 mM
Sequence of RET (P07949 29-1114): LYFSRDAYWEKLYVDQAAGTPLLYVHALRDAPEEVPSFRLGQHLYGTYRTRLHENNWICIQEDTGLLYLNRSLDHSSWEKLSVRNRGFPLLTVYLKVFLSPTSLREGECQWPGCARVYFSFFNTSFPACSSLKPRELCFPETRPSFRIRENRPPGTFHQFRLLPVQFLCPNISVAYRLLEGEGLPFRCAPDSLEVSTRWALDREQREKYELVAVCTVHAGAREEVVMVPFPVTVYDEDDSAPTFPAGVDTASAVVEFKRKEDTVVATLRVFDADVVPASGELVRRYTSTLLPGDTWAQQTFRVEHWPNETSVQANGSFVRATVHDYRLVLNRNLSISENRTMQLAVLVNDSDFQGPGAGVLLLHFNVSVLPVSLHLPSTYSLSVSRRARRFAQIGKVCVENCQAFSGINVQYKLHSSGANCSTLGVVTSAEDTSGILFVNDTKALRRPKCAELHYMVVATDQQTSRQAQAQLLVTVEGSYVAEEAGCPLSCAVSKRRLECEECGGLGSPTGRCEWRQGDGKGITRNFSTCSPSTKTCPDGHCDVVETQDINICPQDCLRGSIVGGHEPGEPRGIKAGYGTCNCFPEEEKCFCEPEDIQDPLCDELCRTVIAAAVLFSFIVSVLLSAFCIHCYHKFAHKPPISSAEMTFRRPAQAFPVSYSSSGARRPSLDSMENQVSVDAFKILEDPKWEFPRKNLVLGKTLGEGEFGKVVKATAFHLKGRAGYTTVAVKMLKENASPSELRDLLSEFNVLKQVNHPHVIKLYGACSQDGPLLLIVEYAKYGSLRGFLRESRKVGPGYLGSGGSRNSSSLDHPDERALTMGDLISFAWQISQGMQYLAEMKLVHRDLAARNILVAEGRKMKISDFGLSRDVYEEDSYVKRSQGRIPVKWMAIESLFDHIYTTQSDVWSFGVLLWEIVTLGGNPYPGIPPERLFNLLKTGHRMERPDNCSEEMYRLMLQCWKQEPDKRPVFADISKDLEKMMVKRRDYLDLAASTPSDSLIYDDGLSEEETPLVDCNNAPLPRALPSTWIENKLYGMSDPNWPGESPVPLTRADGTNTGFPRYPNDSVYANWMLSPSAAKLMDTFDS

SYK = SYK (Homo sapiens, UniProt P43405); test: Kinase selectivity panel; type: biochemical; details: [ATP] = 1 mM
ZAP70 = ZAP70 (Homo sapiens, UniProt P43403); test: Kinase selectivity panel; type: biochemical; details: [ATP] = 1 mM
[1] = molecular target: Per-Arnt-Sim (PAS) kinase (Homo sapiens, UniProt Q96RG2); test: PAS kinase activity, further evaluation; type: biochemical
Sequence of Per-Arnt-Sim (PAS) kinase (Q96RG2 whole entry): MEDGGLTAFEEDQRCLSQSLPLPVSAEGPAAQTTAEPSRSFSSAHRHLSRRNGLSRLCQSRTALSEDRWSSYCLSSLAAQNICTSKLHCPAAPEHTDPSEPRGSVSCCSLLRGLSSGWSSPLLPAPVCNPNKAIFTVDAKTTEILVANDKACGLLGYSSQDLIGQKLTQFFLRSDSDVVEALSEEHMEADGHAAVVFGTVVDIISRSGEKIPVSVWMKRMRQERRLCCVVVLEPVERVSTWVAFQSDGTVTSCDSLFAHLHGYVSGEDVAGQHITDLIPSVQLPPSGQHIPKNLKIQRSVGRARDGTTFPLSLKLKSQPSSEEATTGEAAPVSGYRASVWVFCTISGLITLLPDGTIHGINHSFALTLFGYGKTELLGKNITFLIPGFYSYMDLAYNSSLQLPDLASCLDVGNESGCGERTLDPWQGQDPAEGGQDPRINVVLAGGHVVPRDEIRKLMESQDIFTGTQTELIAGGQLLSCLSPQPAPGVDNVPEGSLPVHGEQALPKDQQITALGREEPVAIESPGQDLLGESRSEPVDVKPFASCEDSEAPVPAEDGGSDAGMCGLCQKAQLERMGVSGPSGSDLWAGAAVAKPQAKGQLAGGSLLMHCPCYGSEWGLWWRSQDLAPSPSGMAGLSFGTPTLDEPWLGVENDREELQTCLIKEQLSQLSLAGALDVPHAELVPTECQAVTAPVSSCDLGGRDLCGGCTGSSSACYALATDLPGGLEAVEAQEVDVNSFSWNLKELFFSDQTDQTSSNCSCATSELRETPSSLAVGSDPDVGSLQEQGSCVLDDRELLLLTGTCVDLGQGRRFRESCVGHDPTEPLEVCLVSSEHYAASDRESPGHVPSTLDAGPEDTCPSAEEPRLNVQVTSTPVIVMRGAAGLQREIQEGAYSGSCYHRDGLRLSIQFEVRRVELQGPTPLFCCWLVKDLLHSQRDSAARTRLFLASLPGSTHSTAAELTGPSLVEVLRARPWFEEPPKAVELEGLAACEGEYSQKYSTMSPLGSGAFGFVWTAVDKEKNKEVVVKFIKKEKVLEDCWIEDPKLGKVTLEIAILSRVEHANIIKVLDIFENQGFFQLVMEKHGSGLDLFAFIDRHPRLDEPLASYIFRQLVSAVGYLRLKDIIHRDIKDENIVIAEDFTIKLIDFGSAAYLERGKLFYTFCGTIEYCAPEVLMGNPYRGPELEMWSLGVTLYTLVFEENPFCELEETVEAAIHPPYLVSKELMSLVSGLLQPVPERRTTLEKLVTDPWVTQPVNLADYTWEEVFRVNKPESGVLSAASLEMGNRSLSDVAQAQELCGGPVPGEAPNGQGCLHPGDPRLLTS

KG-1 = test: Cell proliferation assay ([3H]-thymidine); type: cell-based, human; details: KG-1 (AML)
Experimental: (§1) The antiproliferative effects of INCB053914 on hematologic tumor cells were investigated using assays described in the Supporting Information (S2 File).
(§2) Cell proliferation assays. […] After 3 to 4 days, [^3H]-thymidine (1 μCi/well) (PerkinElmer) in PBS (10 μl) was added to the cell culture for an additional 12 hours. The incorporated radioactivity was separated by filtration with water through GF/B filters (Packard Bioscience, Meriden, Connecticut) and measured by liquid scintillation counting with a TopCount (Packard Bioscience).

MOLM-16 = test: Cell proliferation assay ([3H]-thymidine); type: cell-based, human; details: MOLM-16 (AML)
Experimental: as §1, §2

[2] = system: primary bone marrow blasts from patients with AML; test: Ex vivo treatment of primary bone marrow blasts from patients with AML (Western blot); type: cell-based, human
Experimental: The effects of INCB053914 on pBAD, pp70S6K, and p4E-BP1 levels and on the expression of PIM isozymes also were assessed ex vivo in primary bone marrow blasts (Stem Cell and Xenograft Core, University of Pennsylvania, Philadelphia, Pennsylvania) or in peripheral blood mononuclear cells (PBMCs) derived from whole blood samples obtained with informed written consent from adult patients with AML enrolled in an ongoing phase 1/2 dose-escalation trial, which was conducted in accordance with the study protocol approved by the respective institutional review boards or independent ethics committees. Only samples initially containing >90% viable cells were used (assessed by Trypan Blue staining). Immediately after thawing, the blasts were cultured in RPMI + 10% FBS with INCB053914 for 2 hours at 37°C, before lysis. For determinations of PIM2 expression in PBMCs, whole blood samples were treated overnight with increasing concentrations of INCB053914; total PBMCs were isolated by Ficoll-Paque density gradient centrifugation before lysis. The levels of PIM isozymes and phosphoproteins in cell lysates were detected by Western blotting using the same primary antibodies as above.

[3] = system: BAD phosphorylation in whole blood spiked with MOLM-16 cells; test: BAD phosphorylation in whole blood samples spiked with tumor cells, treated ex vivo; type: cell-based; details: MOLM16
Pfeiffer DLBCL cells = test: In vitro proliferation of Pfeiffer DLBCL cells, single agents and combination; type: cell-based
Experimental: Synergistic effects of INCB053914 in combination with INCB050465, cytarabine, or itacitinib, were assessed based on the Bliss independence model. In this model, the expected additive effect, with the assumption that concentration dependent effects of 2 drugs (A and B) are independent, is given by the equation EIND = EA + EB – EA •EB, where 0 ≤ EIND ≤ 1; EA and EB are the magnitudes of effects of A and B alone at given concentrations.
The interaction between effects of A and B can be described by the equation Combination Index = EIND/ EOBS, where EOBS is the observed combined effect of A + B expressed as a probability (0 ≤ EOBS ≤ 1). If the point estimate of Combination Index and its upper 97.5% confidence limit are <1 then the combined effect is synergistic; if the 2-sided 95% confidence intervals (CI) encompass 1 then the combined effect is additive (ie, independent); if the point estimate of Combination Index and the lower 2.5% confidence limit are >1 then the combined effect of A + B are antagonistic.

Sequence of AXL (P30530 26-894): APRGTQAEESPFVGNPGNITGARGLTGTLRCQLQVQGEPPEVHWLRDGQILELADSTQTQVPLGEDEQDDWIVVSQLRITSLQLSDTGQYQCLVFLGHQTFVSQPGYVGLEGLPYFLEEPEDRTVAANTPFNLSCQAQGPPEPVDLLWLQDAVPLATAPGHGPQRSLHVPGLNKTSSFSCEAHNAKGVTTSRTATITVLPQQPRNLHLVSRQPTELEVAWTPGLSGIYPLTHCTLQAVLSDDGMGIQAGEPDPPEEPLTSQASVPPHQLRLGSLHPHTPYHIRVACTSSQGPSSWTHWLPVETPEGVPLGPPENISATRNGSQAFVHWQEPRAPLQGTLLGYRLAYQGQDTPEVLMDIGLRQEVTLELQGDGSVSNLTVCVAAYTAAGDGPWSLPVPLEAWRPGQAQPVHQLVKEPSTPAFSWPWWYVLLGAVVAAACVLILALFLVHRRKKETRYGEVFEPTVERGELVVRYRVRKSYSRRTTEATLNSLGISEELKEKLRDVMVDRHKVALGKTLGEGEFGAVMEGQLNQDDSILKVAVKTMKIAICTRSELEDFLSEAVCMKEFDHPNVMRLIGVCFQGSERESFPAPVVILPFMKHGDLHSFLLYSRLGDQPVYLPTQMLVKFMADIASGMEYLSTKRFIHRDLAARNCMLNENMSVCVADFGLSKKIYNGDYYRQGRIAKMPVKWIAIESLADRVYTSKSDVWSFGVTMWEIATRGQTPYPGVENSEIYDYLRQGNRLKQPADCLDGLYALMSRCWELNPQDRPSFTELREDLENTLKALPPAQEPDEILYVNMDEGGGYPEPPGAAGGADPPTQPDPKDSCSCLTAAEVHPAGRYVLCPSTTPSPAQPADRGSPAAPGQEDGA

Compound C[C@H]1CN(c2c(NC(=O)c3ccc(F)c(-c4c(F)cccc4F)n3)cnc3c2CC[C@H]3O)C[C@@H](N)[C@@H]1O.O=P(O)(O)O [INCB053914, N-((R)-4-((3R,4R,5S)-3-amino-4-hydroxy-5-methylpiperidin-1-yl)-7-hydroxy-6,7-dihydro-5H-cyclopenta[b]pyridin-3-yl)-6-(2,6-difluorophenyl)-5-fluoropicolinamide phosphate] has an IC50 (AXL) greater than 20 µM, an IC50 (BTK) greater than 20 µM and an IC50 (CHEK2) greater than 20 µM. It also gave an IC50 (DDR2) greater than 20 µM, an IC50 (EGFR) greater than 20 µM and an IC50 (FAK) greater than 20 µM. For the same compound, the IC50 (HIPK3) was greater than 20 µM, the IC50 (IKKB) was greater than 20 µM and the IC50 (JNK1) was greater than 20 µM. The IC50 (KDR) was greater than 20 µM, the IC50 (LRRK2) was greater than 20 µM and the IC50 (PHKG2) was greater than 20 µM. The IC50 (PKCD) was greater than 20 µM, the IC50 (PLK3) was greater than 20 µM and the IC50 (PRKAA1) was greater than 20 µM. The IC50 (RET) was greater than 20 µM, the IC50 (SYK) was greater than 20 µM and the IC50 (ZAP70) was greater than 20 µM. The “effect on PAS kinase activity relative to PIM2” value [1] was “approximately equipotent effects on PIM2 and PAS kinase activities”, the GI50 (KG-1; Homo sapiens, read-out: Mean (± SD) GI50) was 0.0179 ± 0.0071 µM and the “Mean (SD) maximum inhibition” value (KG-1) was 88.3 ± 3.8%. The GI50 (MOLM-16; Homo sapiens, MOLM16, read-out: Mean (± SD) GI50) was 0.0033 µM, the “Mean (SD) maximum inhibition” value (MOLM-16) was 99.3 ± 0.3% and the “patients whose blasts showed decreases in BAD phosphorylation” value [2] was “two of four patients”. For the same compound, the PIM2 expression ([2]; 2 hours) was “increased PIM2 expression”, the “phosphorylation of p70S6K and 4E-BP1” value ([2]; 2 hours) was “decreased phosphorylation of p70S6K and 4E-BP1” and the IC50 [3] was 0.076 µM. The “proliferation of Pfeiffer cells, single agent” value (Pfeiffer DLBCL cells) was “inhibited”.
